“Also recorded” adds a separate entry of the source.
Legend:
[1] = Glucose clearance in somatostatin-infused minipigs after glucose bolus; assay type: in vivo; details: transbuccal strips of NP-insulin, μg DoD/strip, period of 40 to 60 minutes, FIG. 8
Protocol: Minipigs were infused with somatostatin in order to suppress endogenous insulin secretion. They were then given a bolus injection of 0.33 gm/kg glucose. After thirty minutes the test item was given and the first order rate constant for glucose clearance (k) was calculated for the period of 40 to 60 minutes.
Test items included: 1. Strips containing 4 U insulin on nanoparticle applied transbuccal; 2. Strips containing 4 U insulin on nanoparticle dodecyl-β-D-maltoside applied transbuccal; 3. Subcutaneous (s.c.) nanoparticle-insulin (NP-insulin); 4. S.C. commercial Humalog® insulin.

[2] = tested on: insulin-carrying gold nanoparticles ("GNPI"); assay: Insulin release from insulin-carrying gold nanoparticles incubated with permeation enhancer, BCA protein assay of supernatant; assay type: physicochemical
Protocol: […] Samples were mixed and left at RT for 1 h, they were then spun for 2 min at 18000 g and 10 μl of each supernatant was measured by BCA protein assay to determine insulin release, a blank and a positive control in which no TDM was added and the sample was not spun were also included.
The sample tubes were vortexed and left at RT for a further 95 h (for a total of 96 hours) and re-assayed as above to see if there was any further indication of insulin release.
In a follow on experiment lysalbinic acid (LAA) was also tested as an alternative potential permeation enhancer, the same protocol was used as for TDM above.

Row | insulin release by TDM over 0 TDM control ([2]; 1 h at RT in water, 2.5-67.5 μg TDM in 0.5 ml, FIG. 2) | further insulin release after a total of 96 hours ([2]; 96 h at RT in water, FIG. 3) | loss of bound active from active-carrying nanoparticle ([2]; 96 hours of incubation in solution) | percentage of insulin released against percentage of permeation enhancer ([2]; insulin level of 75 U/ml, FIG. 5 and FIG. 6) | effect on insulin release from GNPI (overall conclusion) ([2]; range of concentrations, in water, short or medium term) | Compound | first order rate constant for glucose clearance (k) against dosage of DoD [1]
1 |  |  |  |  |  | CCCCCCCCCCCCO[C@@H]1O[C@H](CO)[C@@H](O[C@H]2O[C@H](CO)[C@@H](O)[C@H](O)[C@H]2O)[C@H](O)[C@H]1O [DoD, dodecyl-β-D-maltoside] | apparent dose-dependence; also recorded: clear dose-dependence
2 | less than 5% | no further release | without significant loss of bound active | lack of effect | no gross effect | CCCCCCCCCCCCCCO[C@@H]1O[C@H](CO)[C@@H](O[C@H]2O[C@H](CO)[C@@H](O)[C@H](O)[C@H]2O)[C@H](O)[C@H]1O [TDM, tetradecyl-D-maltoside] | 

Reference: patent US20140220135A1, “PERMEATION ENHANCED ACTIVE-CARRYING NANOPARTICLES” (Midatech Limited, priority 2013, published 2014)
